Laboratory results reported in the NIST ThermoML archive (doi:10.1016/j.fluid.2010.02.012).
± gives the expanded uncertainty stated by the source.

Test: excess molar enthalpy (molar enthalpy of mixing); xn = mol fraction of the nth substance listed
Settings: 298.18 K, 101 kPa, Liquid, Calvet calorimetry

`CCCCCCCCCC` [decane] + CCO gave an excess molar enthalpy (x2 = 0.0881) of 0.12 ± 0.00263 kcal/mol, an excess molar enthalpy (x2 = 0.1338) of 0.142 ± 0.00311 kcal/mol and an excess molar enthalpy (x2 = 0.1766) of 0.159 ± 0.00335 kcal/mol. For the same molecule, the excess molar enthalpy (x2 = 0.2665) was 0.174 ± 0.00382 kcal/mol, the excess molar enthalpy (x2 = 0.3141) was 0.176 ± 0.00382 kcal/mol and the excess molar enthalpy (x2 = 0.4314) was 0.176 ± 0.00382 kcal/mol. It also gave an excess molar enthalpy (x2 = 0.5931) of 0.161 ± 0.00359 kcal/mol, an excess molar enthalpy (x2 = 0.6501) of 0.153 ± 0.00335 kcal/mol and an excess molar enthalpy (x2 = 0.7248) of 0.141 ± 0.00311 kcal/mol. It also gave an excess molar enthalpy (x2 = 0.7837) of 0.128 ± 0.00287 kcal/mol, an excess molar enthalpy (x2 = 0.8079) of 0.123 ± 0.00263 kcal/mol and an excess molar enthalpy (x2 = 0.848) of 0.105 ± 0.00239 kcal/mol. For the same molecule, the excess molar enthalpy (x2 = 0.8829) was 0.0894 ± 0.00191 kcal/mol, the excess molar enthalpy (x2 = 0.9377) was 0.0576 ± 0.0012 kcal/mol and the excess molar enthalpy (x2 = 0.962) was 0.038 ± 0.000956 kcal/mol.
